From US12447153B2, “HER2 mutation inhibitors” (Array BioPharma Inc., priority 2021, dated 2025)

What was measured:
ErbB2 WT = ErbB2 WT (Homo sapiens (Human), UniProt P04626); experiment: ErbB Enzyme Assay (HTRF KinEASE-TK), Assay 2; assay type: biochemical
[1] = target: ErbB2 with Exon 20 YVMA insertion (HER2-YVMA) (Homo sapiens (Human), UniProt P04626, INS775YVMA); experiment: Cellular Phosphorylation Assay, Assay 4 (constitutive ErbB2 phosphorylation, NIH 3T3 cells); assay type: cell-based
EGFR wild type (EGFR WT) = EGFR wild type (EGFR WT) (Homo sapiens (Human), UniProt P00533); experiment: Cellular Phosphorylation Assay, Assay 5 (EGF-stimulated EGFR phosphorylation, NIH 3T3 cells); assay type: cell-based
EGFR = EGFR (Homo sapiens (Human), UniProt P00533); experiment: ErbB Enzyme Assay (HTRF KinEASE-TK), Assay 3; assay type: biochemical
[2] = EGF-stimulated EGFR WT phosphorylation
[3] = cellular ErbB2 YVMA phosphorylation
[4] = cellular EGFR WT phosphorylation, EGF-stimulated

Sequence of EGFR (P00533 25-1210): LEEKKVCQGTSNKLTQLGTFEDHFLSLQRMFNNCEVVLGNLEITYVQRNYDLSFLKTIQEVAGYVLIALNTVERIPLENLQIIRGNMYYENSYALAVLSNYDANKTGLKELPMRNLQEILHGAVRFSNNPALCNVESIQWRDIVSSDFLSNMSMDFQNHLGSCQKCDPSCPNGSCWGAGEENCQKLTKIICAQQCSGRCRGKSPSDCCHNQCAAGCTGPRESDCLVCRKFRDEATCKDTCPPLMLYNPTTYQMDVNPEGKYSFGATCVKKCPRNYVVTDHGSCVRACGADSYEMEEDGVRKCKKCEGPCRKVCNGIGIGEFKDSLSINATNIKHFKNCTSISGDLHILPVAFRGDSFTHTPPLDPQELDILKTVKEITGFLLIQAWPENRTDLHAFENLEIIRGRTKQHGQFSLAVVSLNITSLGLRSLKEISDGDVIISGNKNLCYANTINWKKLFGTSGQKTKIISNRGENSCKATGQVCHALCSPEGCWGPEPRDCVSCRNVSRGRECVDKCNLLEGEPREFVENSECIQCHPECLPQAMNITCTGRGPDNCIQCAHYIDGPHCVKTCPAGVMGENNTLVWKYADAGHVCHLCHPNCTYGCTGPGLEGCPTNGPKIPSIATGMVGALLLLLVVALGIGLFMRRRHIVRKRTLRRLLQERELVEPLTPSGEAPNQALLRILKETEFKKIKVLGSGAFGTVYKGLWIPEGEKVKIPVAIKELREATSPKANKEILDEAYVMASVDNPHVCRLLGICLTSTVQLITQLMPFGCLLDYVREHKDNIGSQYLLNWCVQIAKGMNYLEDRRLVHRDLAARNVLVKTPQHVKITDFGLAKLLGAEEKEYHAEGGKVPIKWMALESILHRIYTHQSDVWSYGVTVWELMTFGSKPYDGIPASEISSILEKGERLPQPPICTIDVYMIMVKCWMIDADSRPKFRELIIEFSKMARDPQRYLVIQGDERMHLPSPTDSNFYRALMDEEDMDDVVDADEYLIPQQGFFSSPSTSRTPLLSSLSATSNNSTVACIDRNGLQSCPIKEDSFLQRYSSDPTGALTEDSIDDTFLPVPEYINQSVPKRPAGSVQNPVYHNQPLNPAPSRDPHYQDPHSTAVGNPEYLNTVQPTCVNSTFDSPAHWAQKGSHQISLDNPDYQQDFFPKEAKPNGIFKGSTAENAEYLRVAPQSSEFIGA
Sequence of EGFR wild type (EGFR WT) (P00533 25-1210): as above
Sequence of ErbB2 WT (P04626 23-1255): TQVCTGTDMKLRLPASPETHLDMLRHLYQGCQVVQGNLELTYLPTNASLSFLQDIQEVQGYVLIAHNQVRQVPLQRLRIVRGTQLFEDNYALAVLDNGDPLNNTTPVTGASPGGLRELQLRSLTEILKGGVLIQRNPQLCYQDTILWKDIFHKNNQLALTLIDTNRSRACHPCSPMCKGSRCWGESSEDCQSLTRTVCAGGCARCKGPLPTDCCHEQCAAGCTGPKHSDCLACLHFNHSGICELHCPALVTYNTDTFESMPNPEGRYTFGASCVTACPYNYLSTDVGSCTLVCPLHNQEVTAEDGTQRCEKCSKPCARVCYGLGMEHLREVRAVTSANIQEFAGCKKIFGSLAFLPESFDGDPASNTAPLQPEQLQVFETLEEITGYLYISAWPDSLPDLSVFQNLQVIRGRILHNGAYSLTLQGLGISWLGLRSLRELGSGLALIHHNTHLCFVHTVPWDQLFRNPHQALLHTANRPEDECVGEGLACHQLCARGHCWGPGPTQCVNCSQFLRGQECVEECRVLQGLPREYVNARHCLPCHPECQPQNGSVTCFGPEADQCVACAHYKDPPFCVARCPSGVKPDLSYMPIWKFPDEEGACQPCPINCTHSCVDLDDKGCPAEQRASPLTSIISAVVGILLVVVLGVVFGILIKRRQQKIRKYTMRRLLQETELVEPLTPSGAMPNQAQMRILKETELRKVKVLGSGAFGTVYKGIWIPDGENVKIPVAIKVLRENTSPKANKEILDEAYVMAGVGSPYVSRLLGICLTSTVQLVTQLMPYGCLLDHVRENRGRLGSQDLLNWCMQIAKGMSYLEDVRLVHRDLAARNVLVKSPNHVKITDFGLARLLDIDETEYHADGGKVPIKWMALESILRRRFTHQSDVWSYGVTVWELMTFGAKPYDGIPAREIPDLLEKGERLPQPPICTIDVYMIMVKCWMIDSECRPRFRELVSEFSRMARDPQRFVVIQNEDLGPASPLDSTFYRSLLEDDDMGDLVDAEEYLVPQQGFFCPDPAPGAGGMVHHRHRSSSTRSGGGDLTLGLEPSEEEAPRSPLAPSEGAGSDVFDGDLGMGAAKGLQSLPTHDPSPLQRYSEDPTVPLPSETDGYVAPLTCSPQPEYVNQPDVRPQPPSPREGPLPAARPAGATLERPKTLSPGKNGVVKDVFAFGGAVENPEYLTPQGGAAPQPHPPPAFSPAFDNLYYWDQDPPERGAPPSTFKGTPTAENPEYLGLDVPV
Sequence of ErbB2 with Exon 20 YVMA insertion (HER2-YVMA) (P04626 other isoform, or with tags, fused parts or gaps ins YVMA behind 775): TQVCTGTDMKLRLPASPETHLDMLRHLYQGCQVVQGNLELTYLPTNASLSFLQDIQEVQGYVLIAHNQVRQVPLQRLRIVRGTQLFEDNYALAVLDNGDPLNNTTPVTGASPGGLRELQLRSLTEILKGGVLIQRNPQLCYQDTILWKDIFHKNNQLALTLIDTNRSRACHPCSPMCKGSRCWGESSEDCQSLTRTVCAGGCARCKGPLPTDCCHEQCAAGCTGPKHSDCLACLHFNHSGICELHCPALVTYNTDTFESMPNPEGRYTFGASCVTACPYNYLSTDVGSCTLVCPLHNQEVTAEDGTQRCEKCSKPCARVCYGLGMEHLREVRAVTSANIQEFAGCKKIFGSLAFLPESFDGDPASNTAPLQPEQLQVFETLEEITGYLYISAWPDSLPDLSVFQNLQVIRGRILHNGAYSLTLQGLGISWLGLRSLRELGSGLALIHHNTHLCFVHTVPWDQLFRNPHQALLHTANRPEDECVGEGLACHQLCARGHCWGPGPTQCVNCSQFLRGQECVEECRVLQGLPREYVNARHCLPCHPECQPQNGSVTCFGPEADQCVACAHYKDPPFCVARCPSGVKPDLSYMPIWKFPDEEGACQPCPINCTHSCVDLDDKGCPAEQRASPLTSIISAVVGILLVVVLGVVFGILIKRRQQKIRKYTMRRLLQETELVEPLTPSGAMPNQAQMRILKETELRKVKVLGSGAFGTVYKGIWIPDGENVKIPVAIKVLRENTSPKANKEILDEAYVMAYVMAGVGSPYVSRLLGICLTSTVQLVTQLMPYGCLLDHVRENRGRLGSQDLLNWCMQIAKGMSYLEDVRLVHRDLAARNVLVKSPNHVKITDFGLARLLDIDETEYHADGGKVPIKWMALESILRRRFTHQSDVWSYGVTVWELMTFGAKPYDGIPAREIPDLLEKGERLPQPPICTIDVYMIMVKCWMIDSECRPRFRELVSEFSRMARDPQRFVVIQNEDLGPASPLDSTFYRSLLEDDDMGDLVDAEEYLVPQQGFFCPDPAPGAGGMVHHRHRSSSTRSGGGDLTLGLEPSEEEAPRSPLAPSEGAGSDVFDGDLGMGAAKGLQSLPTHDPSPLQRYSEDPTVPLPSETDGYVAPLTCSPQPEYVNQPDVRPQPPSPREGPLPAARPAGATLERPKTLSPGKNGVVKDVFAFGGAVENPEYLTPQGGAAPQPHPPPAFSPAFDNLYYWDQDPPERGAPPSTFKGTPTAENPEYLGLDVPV

Row | IC50 (ErbB2 WT; ErbB2 WT enzyme) [nM] | IC50 ([1]; ErbB2 YVMA phosphorylation) [nM] | IC50 (EGFR wild type (EGFR WT); [2]) [nM] | IC50 (EGFR; EGFR enzyme) [nM] | IC50 (ErbB2 WT; ErbB2 WT enzyme assay) [nM] | IC50 [1, 3] [nM] | IC50 (EGFR wild type (EGFR WT); [4]) [nM] | IC50 (EGFR; EGFR enzyme assay) [nM] | Structure (SMILES)
1 | 2.3 | 5.7 | 45.4 | 30 | – | – | – | – | C=CC(=O)N1CCN(c2ccc3ncnc(Nc4ccc(Oc5ccn6ncnc6c5)c(Cl)c4F)c3n2)C[C@@H]1C(F)(F)F [Example 86, (R)-1-(4-(4-((4-([1,2,4]triazolo[1,5-a]pyridin-7-yloxy)-3-chloro-2-fluorophenyl)amino)pyrido[3,2-d]pyrimidin-6-yl)-2-(trifluoromethyl)piperazin-1-yl)prop-2-en-1-one]
2 | – | – | – | – | 10.4 | 10.9 | 129 | 102 | C=CC(=O)N1CCN(c2ccc3ncnc(Nc4ccc(Oc5cc(F)c6c(c5)ncn6C)c(C)c4)c3n2)CC12CC2 [Example 281]
3 | – | – | – | – | 148 | 204 | ≥ 5000 | ≥ 10000 | C=CC(=O)N1[C@H](C)CN(c2ccc3ncnc(Nc4cc(C)c(Oc5ccn6ncnc6c5)cc4F)c3n2)C[C@@H]1C [Example 263]
4 | – | – | – | – | 7.7 | 3.4 | 46.8 | 88.4 | C=CC(=O)N1CCN(c2ccc3ncnc(Nc4ccc(Oc5ccn6ncnc6c5)c(Cl)c4F)c3n2)C[C@H]1COC [Example 344]
5 | – | – | – | – | 28.9 | 67.3 | 2640 | 1720 | C=CC(=O)N1C[C@@H]2C[C@H]1CC[C@@H]2c1ccc2ncnc(Nc3ccc(Oc4ccn5ncnc5c4)c(C)c3F)c2n1 [Example 381]
6 | 54.3 | 49.4 | 1210 | ≥ 10000 | – | – | – | – | C=CC(=O)N1CCC(Sc2ccc3ncnc(Nc4ccc(Oc5ccn6ncnc6c5)c(C)c4F)c3n2)CC1 [Example 60, 1-(4-((4-((4-([1,2,4]triazolo[1,5-a]pyridin-7-yloxy)-2-fluoro-3-methylphenyl)amino)pyrido[3,2-d]pyrimidin-6-yl)thio)piperidin-1-yl)prop-2-en-1-one]
7 | 16.4 | 20.1 | 503 | 872 | – | – | – | – | C=CC(=O)N1CCC[C@@H](c2ccc3ncnc(Nc4ccc(Oc5ccn6ncnc6c5)c(C)c4F)c3n2)CC1 (single isomer, unassigned) [Example 209]
8 | – | – | – | – | 57.2 | 66.9 | ≥ 5000 | ≥ 10000 | C=CC(=O)N1[C@@H](C)CN(c2ccc3ncnc(Nc4ccc(Oc5ccc6c(c5)ncn6C)c(C)c4F)c3n2)C[C@@H]1C [Example 256]
9 | 1290 | 1140 | ≥ 5000 | ≥ 10000 | – | – | – | – | C=CC(=O)N1CCC(Oc2ccc3ncnc(Nc4cc(Cl)c(Oc5ccc6cn(C)nc6c5)cc4Cl)c3n2)CC1 [Example 2, 1-(4-((4-((2,5-dichloro-4-((2-methyl-2H-indazol-6-yl)oxy)phenyl)amino)pyrido[3,2-d]pyrimidin-6-yl)oxy)piperidin-1-yl)prop-2-en-1-one]
10 | 13.4 | 26.3 | ≥ 5000 | ≥ 10000 | – | – | – | – | C=CC(=O)N1CCCC[C@@H](c2ccc3ncnc(Nc4ccc(Oc5ccc6c(c5)ncn6C)c(C)c4)c3n2)C1 (single isomer, unassigned) [Example 171]
11 | – | – | – | – | 127 | 66.1 | ≥ 5000 | 7970 | C=CC(=O)N1CCN(c2ccc3ncnc(Nc4ccc(Oc5ccn6ncnc6c5)c(C)c4F)c3n2)C[C@@H]1C1CCC1 (racemic) [Example 305]
12 | – | – | – | – | 104 | 36.6 | ≥ 5000 | ≥ 10000 | C=CC(=O)N1CC2(CCN(c3ccc4ncnc(Nc5ccc(Oc6ccn7ncnc7c6)c(C)c5F)c4n3)C2)C1 [Example 307]
13 | 338 | 50.2 | 666 | 1210 | – | – | – | – | C=CC(=O)N1CCN(c2ccc3ncnc(Nc4ccc(Oc5ccc6scnc6c5)c(C)c4F)c3n2)CC1(C)C [Example 243, 1-(4-(4-((4-(benzo[d]thiazol-5-yloxy)-2-fluoro-3-methylphenyl)amino)pyrido[3,2-d]pyrimidin-6-yl)-2,2-dimethylpiperazin-1-yl)prop-2-en-1-one]
14 | 99.1 | 41.1 | 1240 | 1450 | – | – | – | – | C=CC(=O)N1CCC(Oc2ccc3ncnc(Nc4ccc(Oc5cnn6c(C)cnc6c5)c(Cl)c4F)c3n2)CC1 [Example 53, 1-(4-((4-((3-chloro-2-fluoro-4-((3-methylimidazo[1,2-b]pyridazin-7-yl)oxy)phenyl)amino)pyrido[3,2-d]pyrimidin-6-yl)oxy)piperidin-1-yl)prop-2-en-1-one]
15 | 64.2 | 64.6 | ≥ 5000 | ≥ 10000 | – | – | – | – | C=CC(=O)N1[C@H](C)C[C@@H](c2ccc3ncnc(Nc4ccc(Oc5ccc6c(c5)ncn6C)c(C)c4F)c3n2)C[C@@H]1C [Example 166, 1-((2R,4SR,6S)-4-(4-((2-fluoro-3-methyl-4-((1-methyl-1H-benzo[d]imidazol-5-yl)oxy)phenyl)amino)pyrido[3,2-d]pyrimidin-6-yl)-2,6-dimethylpiperidin-1-yl)prop-2-en-1-one]
16 | – | – | – | – | 28.2 | 33.6 | 1380 | 4550 | C=CC(=O)N1CCN(c2ccc3ncnc(Nc4ccc(Oc5ccn6ncnc6c5)c(C)c4F)c3n2)C[C@H]1C1CC1 [Example 283]
17 | – | – | – | – | 15 | 21 | 339 | 584 | C=CC(=O)N1CC[C@H]2C[C@H](c3ccc4ncnc(Nc5ccc(Oc6ccn7ncnc7c6)c(C)c5F)c4n3)C[C@H]21 [Example 382]
18 | 13.4 | 5.9 | 575 | 519 | – | – | – | – | C=CC(=O)N1CCN(c2ccc3ncnc(Nc4ccc(Oc5ccn6ncnc6c5)c(Cl)c4F)c3n2)C[C@@H]1C [Example 90, (S)-1-(4-(4-((4-([1,2,4]triazolo[1,5-a]pyridin-7-yloxy)-3-chloro-2-fluorophenyl)amino)pyrido[3,2-d]pyrimidin-6-yl)-2-methylpiperazin-1-yl)prop-2-en-1-one]

Row | Structure (SMILES) | IC50 (ErbB2 WT; ErbB2 WT enzyme) [nM] | IC50 ([1]; ErbB2 YVMA phosphorylation) [nM] | IC50 (EGFR wild type (EGFR WT); [2]) [nM] | IC50 (EGFR; EGFR enzyme) [nM] | IC50 (ErbB2 WT; ErbB2 WT enzyme assay) [nM] | IC50 [1, 3] [nM] | IC50 (EGFR wild type (EGFR WT); [4]) [nM] | IC50 (EGFR; EGFR enzyme assay) [nM]
19 | C=CC(=O)N1C2CC1CN(c1ccc3ncnc(Nc4cc(Cl)c(Oc5ccn6ncnc6c5)cc4F)c3n1)C2 [Example 44, 1-(3-(4-((4-([1,2,4]triazolo[1,5-a]pyridin-7-yloxy)-5-chloro-2-fluorophenyl)amino)pyrido[3,2-d]pyrimidin-6-yl)-3,6-diazabicyclo[3.1.1]heptan-6-yl)prop-2-en-1-one] | 81.5 | 55.7 | ≥ 5000 | ≥ 10000 | – | – | – | –
20 | C=CC(=O)N1C2CC1CN(c1ccc3ncnc(Nc4cc(Cl)c(Oc5cnc6c(c5)ncn6C)cc4F)c3n1)C2 [Example 241, 1-(3-(4-((5-chloro-2-fluoro-4-((3-methyl-3H-imidazo[4,5-b]pyridin-6-yl)oxy)phenyl)amino)pyrido[3,2-d]pyrimidin-6-yl)-3,6-diazabicyclo[3.1.1]heptan-6-yl)prop-2-en-1-one] | 354 | 22.2 | ≥ 5000 | ≥ 10000 | – | – | – | –
21 | C=CC(=O)N1[C@@H]2CC[C@H]1CC(c1ccc3ncnc(Nc4cc(C)c(Oc5ccn6ncnc6c5)cc4F)c3n1)C2 (stereo partly drawn) [Example 194, 1-((1R,5S)-3-(4-((4-([1,2,4]triazolo[1,5-a]pyridin-7-yloxy)-2-fluoro-5-methylphenyl)amino)pyrido[3,2-d]pyrimidin-6-yl)-8-azabicyclo[3.2.1]octan-8-yl)prop-2-en-1-one] | 171 | 33.9 | 2780 | 5800 | – | – | – | –
